Experimental data taken from PubChem BioAssay (NCI).
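Protocol summary: plate cells (96-well), add compound at 5 concentrations, incubate 48 h, interpolate endpoints linearly. TGI marks complete inhibition of growth.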

Tests used:
Assay in all cases: growth of human tumour cells (NCI), 48 h
786-0 renal = tested on: 786-0 renal
A549 NSCLC = tested on: A549 NSCLC
HCT-116 colon = tested on: HCT-116 colon
HL-60(TB) leukemia = tested on: HL-60(TB) leukemia
MALME-3M melanoma = tested on: MALME-3M melanoma
NCI-H522 lung = tested on: NCI-H522 lung
PC-3 prostate = tested on: PC-3 prostate
SW-620 colon = tested on: SW-620 colon
TK-10 renal = tested on: TK-10 renal
U251 CNS = tested on: U251 CNS

Structure (SMILES): C=CN(C=C)C(=O)Cn1cc(-c2ccccc2)nn1
- TGI (786-0 renal): > 100 µM
- TGI (A549 NSCLC): > 100 µM
- TGI (HCT-116 colon): > 100 µM
- TGI (HL-60(TB) leukemia): > 100 µM
- TGI (MALME-3M melanoma): > 100 µM
- TGI (NCI-H522 lung): > 100 µM
- TGI (PC-3 prostate): > 100 µM
- TGI (SW-620 colon): > 100 µM
- TGI (TK-10 renal): > 100 µM
- TGI (U251 CNS): > 100 µM

Structure (SMILES): COc1ccc(-c2cc3cc(Cl)cc(Cl)c3oc2=O)cc1OC
- TGI (786-0 renal): > 100 µM
- TGI (A549 NSCLC): > 100 µM
- TGI (HCT-116 colon): > 100 µM
- TGI (HL-60(TB) leukemia): > 100 µM
- TGI (MALME-3M melanoma): > 100 µM
- TGI (NCI-H522 lung): > 100 µM
- TGI (PC-3 prostate): > 100 µM
- TGI (SW-620 colon): > 100 µM
- TGI (TK-10 renal): > 100 µM
- TGI (U251 CNS): > 100 µM

Structure (SMILES): CCOC(=O)[C@@H](Cc1ccc(CCl)cc1)NC(C)=O
- TGI (786-0 renal): 40.4 µM
- TGI (A549 NSCLC): > 100 µM
- TGI (HCT-116 colon): > 100 µM
- TGI (HL-60(TB) leukemia): 70.7 µM
- TGI (MALME-3M melanoma): 37.7 µM
- TGI (NCI-H522 lung): 35.5 µM
- TGI (PC-3 prostate): > 100 µM
- TGI (SW-620 colon): > 100 µM
- TGI (TK-10 renal): 23.4 µM
- TGI (U251 CNS): 40.5 µM

Structure (SMILES): CN(C)CCNCCCNc1c2ccccc2nc2cccc([N+](=O)[O-])c12
- TGI (786-0 renal): 0.106 µM
- TGI (A549 NSCLC): 0.0999 µM
- TGI (HCT-116 colon): 0.0594 µM
- TGI (HL-60(TB) leukemia): 0.0247 µM
- TGI (MALME-3M melanoma): 0.104 µM
- TGI (NCI-H522 lung): < 0.0133 µM
- TGI (PC-3 prostate): 0.0609 µM
- TGI (SW-620 colon): 1.34 µM
- TGI (TK-10 renal): 0.176 µM
- TGI (U251 CNS): 0.0801 µM

Structure (SMILES): C/C(=C\CSCC(N)C(=O)O)CC/C=C(\C)CNc1ccccc1 (stereo not given)
- TGI (786-0 renal): > 100 µM
- TGI (A549 NSCLC): > 100 µM
- TGI (HCT-116 colon): > 100 µM
- TGI (HL-60(TB) leukemia): > 100 µM
- TGI (MALME-3M melanoma): > 100 µM
- TGI (NCI-H522 lung): > 100 µM
- TGI (PC-3 prostate): > 100 µM
- TGI (SW-620 colon): > 100 µM
- TGI (TK-10 renal): > 100 µM
- TGI (U251 CNS): > 100 µM

Structure (SMILES): O=C1c2cc3c(cc2CC12Cc1ccc4c(c1C2=O)CCC4)CCC3 (stereo not given)
- TGI (786-0 renal): > 100 µM
- TGI (A549 NSCLC): > 100 µM
- TGI (HCT-116 colon): > 100 µM
- TGI (HL-60(TB) leukemia): > 100 µM
- TGI (MALME-3M melanoma): > 100 µM
- TGI (NCI-H522 lung): > 100 µM
- TGI (PC-3 prostate): > 100 µM
- TGI (SW-620 colon): > 100 µM
- TGI (TK-10 renal): > 100 µM
- TGI (U251 CNS): > 100 µM

Structure (SMILES): CC(C)=CCc1c(O)cc2oc(-c3ccc(O)cc3O)cc(=O)c2c1O
- TGI (786-0 renal): 74.5 µM
- TGI (A549 NSCLC): > 100 µM
- TGI (HCT-116 colon): 61.1 µM
- TGI (HL-60(TB) leukemia): 51 µM
- TGI (MALME-3M melanoma): 53.7 µM
- TGI (NCI-H522 lung): 53.6 µM
- TGI (PC-3 prostate): 98.2 µM
- TGI (SW-620 colon): > 100 µM
- TGI (TK-10 renal): 69.7 µM
- TGI (U251 CNS): > 100 µM

Structure (SMILES): N#C/C(C(=O)NCc1ccccc1)=C(/N)N1CCCC1
- TGI (786-0 renal): > 100 µM
- TGI (A549 NSCLC): > 100 µM
- TGI (HCT-116 colon): > 100 µM
- TGI (HL-60(TB) leukemia): > 100 µM
- TGI (MALME-3M melanoma): > 100 µM
- TGI (NCI-H522 lung): > 100 µM
- TGI (PC-3 prostate): > 100 µM
- TGI (SW-620 colon): > 100 µM
- TGI (TK-10 renal): > 100 µM
- TGI (U251 CNS): > 100 µM

Structure (SMILES): CN(C)/N=N/c1nc2c(c(=O)n(C)c(=O)n2C)n1CC1CO1 (stereo not given)
- TGI (786-0 renal): 57.5 µM
- TGI (A549 NSCLC): 69.4 µM
- TGI (HCT-116 colon): 24 µM
- TGI (HL-60(TB) leukemia): > 100 µM
- TGI (MALME-3M melanoma): 25.1 µM
- TGI (NCI-H522 lung): 29.7 µM
- TGI (PC-3 prostate): 56.4 µM
- TGI (SW-620 colon): 36.8 µM
- TGI (TK-10 renal): 37.7 µM
- TGI (U251 CNS): 35.2 µM

Structure (SMILES): CCOC(=O)c1c(-c2ccccc2)c(OC)cn1C
- TGI (786-0 renal): > 10 µM
- TGI (A549 NSCLC): > 10 µM
- TGI (HCT-116 colon): > 10 µM
- TGI (HL-60(TB) leukemia): > 10 µM
- TGI (MALME-3M melanoma): > 10 µM
- TGI (NCI-H522 lung): > 10 µM
- TGI (PC-3 prostate): > 10 µM
- TGI (SW-620 colon): > 10 µM
- TGI (TK-10 renal): > 10 µM
- TGI (U251 CNS): > 10 µM
